Results from patent publication US11464802B2, “3-substituted piperidine compounds for Cbl-b inhibition, and use thereof” (Nurix Therapeutics, Inc., priority 2019, dated 2022).

Tests used:
Cbl-b = Cbl-b (Homo sapiens (Human), UniProt Q13191); test: Cbl-b displacement assay (Cbl-b inhibition assay), Biological Example 12; assay type: binding; details: 0.125 nM Cbl-b final concentration (Low); Table 12-1; read-out: Cbl-b IC50 (Low)
How it was run: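 Biotinylated Avitag-Cbl-b (residues 36-427) at 0.5 nM ("High") or 0.125 nM ("Low") final was preincubated 1 h at room temperature with compound (1% DMSO) in 20 mM HEPES pH 7.5, 150 mM NaCl, 0.01% Triton X-100, 0.01% BSA, 0.5 mM TCEP. Then 150 nM BODIPY FL inhibitor probe (~EC40) plus 2 nM streptavidin-terbium, 1 h; TR-FRET 520/620 read, IC50 derived.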

[1] = system: primary human total T-cells; test: Primary human total T-cell activation: CD25 surface staining, Biological Example 9; assay type: cell-based; details: 48 hours, fold change over baseline; for fold induction at 1 µM: inhibitor 1 μM
[2] = system: primary human total T-cells; test: Primary human total T-cell activation: IL-2 secretion, Biological Example 9; assay type: cell-based; details: 48 hours, fold change over baseline; for fold induction at 1 µM: inhibitor 1 μM
[3] = system: primary human total T-cells; test: Primary human total T-cell activation: IL-2 secretion, Biological Example 2; assay type: cell-based; details: 48 hours, fold change over baseline; for fold induction at 1 µM: inhibitor 1 μM
[4] = system: primary human total T-cells; test: Primary human total T-cell activation: CD25 surface staining, Biological Example 13; assay type: cell-based; details: 48 hours, fold change over baseline; for fold induction at 1 µM: inhibitor 1 μM
[5] = system: primary human total T-cells; test: Primary human total T-cell activation: IL-2 secretion, Biological Example 13; assay type: cell-based; details: 48 hours, fold change over baseline; for fold induction at 1 µM: inhibitor 1 μM
[6] = system: primary human total T-cells; test: Primary human total T-cell activation: CD25 surface staining, Biological Example 2; assay type: cell-based; details: 48 hours, fold change over baseline; for fold induction at 1 µM: inhibitor 1 μM
TC-1 cells = test: Compound 8 with HPV16 vaccine in TC-1 syngeneic mouse model, Biological Example 16; assay type: in vivo; details: TC-1 tumor-bearing mice
Method: Mice were implanted with 50,000 TC-1 cells/mouse subcutaneously into the right flank (at Day Zero (D0)). Thirteen days later (D13), when tumors measured approximately 50-100 mm^3, mice from appropriate groups (10 mice per group) were injected with HPV16 vaccine (s.c., total 2 doses, at D13 and Day 20 (D20)). […] Mice were euthanized when tumor exceeded 1500-2000 mm^3, according to IACUC guidelines. Survival was compared using GraphPad Prism using log-rank (Mantel-Cox) test. **=p<0.005 of treatment vs. Vehicle+Vaccine control group at Day 61.
TC-1 cells were derived by stable transfection of mouse lung epithelial cells with human papillomavirus strain 16 (HPV16) early proteins 6 and 7 (E6 and E7) and activated h-ras oncogene. Cells were obtained from Dr. T-C Wu (Johns Hopkins University). (Lin K Y, Guarnieri F G, Staveley-O'Carroll K F, Levitsky H I, August J T, Pardoll D M, et al. Treatment of established tumors with a novel vaccine that enhances major histocompatibility class II presentation of tumor antigen. Cancer Res 1996; 56:21-6).
The HPV16 vaccine was prepared as follows: The CTL epitope from HPV16 E749-57 (9 amino acid (aa) peptide, […], 100 μg/mouse, SEQ ID NO: 2) was mixed with synthetic T helper epitope PADRE (13 aa peptide, aK-Cha-[…]a, SEQ ID NO: 3, where “a” is D alanine and Cha is L-cyclohexylalanine, 20 ug/mouse) and with QuilA adjuvant (20 ug/mouse).

[7] = anti-CD3/anti-CD28 co-stimulation, inhibitor 0.3 μM, Table 9-1
[8] = anti-CD3 alone, inhibitor 3 μM, Table 9-1
[9] = anti-CD3/anti-CD28 co-stimulation, inhibitor 0.3 μM
[10] = anti-CD3/anti-CD28 co-stimulation, inhibitor 0.3 μM, Table 13-1
[11] = anti-CD3 alone, inhibitor 3 μM, Table 13-1

Chain of Cbl-b (Q13191 36-427): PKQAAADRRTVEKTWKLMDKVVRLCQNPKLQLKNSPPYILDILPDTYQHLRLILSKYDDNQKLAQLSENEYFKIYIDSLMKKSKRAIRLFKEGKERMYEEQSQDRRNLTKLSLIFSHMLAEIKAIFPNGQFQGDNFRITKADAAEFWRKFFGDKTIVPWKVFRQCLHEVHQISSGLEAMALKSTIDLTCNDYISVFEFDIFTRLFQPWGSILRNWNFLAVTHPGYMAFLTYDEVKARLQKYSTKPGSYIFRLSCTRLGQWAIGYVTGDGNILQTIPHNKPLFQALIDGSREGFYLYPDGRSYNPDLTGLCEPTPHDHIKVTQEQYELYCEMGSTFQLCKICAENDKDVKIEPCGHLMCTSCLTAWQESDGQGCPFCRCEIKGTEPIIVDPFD

## C[C@@H]1CN(Cc2cc3c(c(C(F)(F)F)c2)CN(c2cccc(C4(Cc5nncn5C)COC4)c2)C3=O)CCC1(F)F [Compound 8, (R)-6-((4,4-difluoro-3-methylpiperidin-1-yl)methyl)-2-(3-(3-((4-methyl-4H-1,2,4-triazol-3-yl)methyl)oxetan-3-yl)phenyl)-4-(trifluoromethyl)isoindolin-1-one]
Cbl-b
  IC50: < 1 nM
[1]; [7]
  fold induction at 0.3 µM: > 1.39
[1]; anti-CD3/anti-CD28 co-stimulation, Table 9-1, read-out: CD25 staining CD3/CD28 1 μM
  fold induction at 1 µM: > 1.39
[1]; anti-CD3 alone, Table 9-1, read-out: CD25 staining CD3 1 μM
  fold induction at 1 µM: > 1.14
[1]; [8]
  fold induction at 3 µM: > 1.14
[2]; [7]
  fold induction at 0.3 µM: > 15
[2]; anti-CD3/anti-CD28 co-stimulation, Table 9-1, read-out: IL-2 secretion CD3/CD28 1 μM
  fold induction at 1 µM: > 15
[2]; anti-CD3 alone, Table 9-1, read-out: IL-2 secretion CD3 1 μM
  fold induction at 1 µM: > 0.66
[2]; [8]
  fold induction at 3 µM: > 0.66
[3]; [9]
  fold induction at 0.3 µM: > 15
[3]; anti-CD3/anti-CD28 co-stimulation, read-out: IL-2 secretion CD3/CD28 1 μM
  fold induction at 1 µM: > 15
[3]; anti-CD3 alone, read-out: IL-2 secretion CD3 1 μM
  fold induction at 1 µM: 0.34 to 0.66
[3]; anti-CD3 alone, inhibitor 3 μM
  fold induction at 3 µM: 0.34 to 0.66
[4]; [10]
  fold induction at 0.3 µM: > 1.39
[4]; anti-CD3/anti-CD28 co-stimulation, Table 13-1, read-out: CD25 staining CD3/CD28 1 μM
  fold induction at 1 µM: > 1.39
[4]; anti-CD3 alone, Table 13-1, read-out: CD25 staining CD3 1 μM
  fold induction at 1 µM: > 1.14
[4]; [11]
  fold induction at 3 µM: > 1.14
[5]; [10]
  fold induction at 0.3 µM: > 15
[5]; anti-CD3/anti-CD28 co-stimulation, Table 13-1, read-out: IL-2 secretion CD3/CD28 1 μM
  fold induction at 1 µM: > 15
[5]; anti-CD3 alone, Table 13-1, read-out: IL-2 secretion CD3 1 μM
  fold induction at 1 µM: > 0.66
[5]; [11]
  fold induction at 3 µM: > 0.66
[6]; [9]
  fold induction at 0.3 µM: 1.25 to 1.39
[6]; anti-CD3/anti-CD28 co-stimulation, read-out: CD25 staining CD3/CD28 1 μM
  fold induction at 1 µM: 1.25 to 1.39
[6]; anti-CD3 alone, read-out: CD25 staining CD3 1 μM
  fold induction at 1 µM: > 1.14
[6]; anti-CD3 alone, inhibitor 3 μM
  fold induction at 3 µM: > 1.14
TC-1 cells; Compound 8 orally D13 to D35, HPV16 vaccine s.c. D13 and D20
  tumor growth: significant slowdown of tumor progression
TC-1 cells; Compound 8 orally D13 to D35 with HPV16 vaccine s.c. D13 and D20, vs. Vehicle+Vaccine
  survival: prolonged survival
